In patent US10005818B2, “Derivative peptide compounds and methods of use” (REALTA HOLDINGS, LLC, priority 2010, dated 2018):
Square brackets hold non-standard residues; d marks the D form. Ends that are not written are not given here. Peptide text beside a SMILES is read from it. PEG24 = NCCOCCOCCOCCOCCOCCOCCOCCOCCOCCOCCOCCOCCOCCOCCOCCOCCOCCOCCOCCOCCOCCOCCOCCOCCC(=O)O; Sar = CNCC(=O)O

Tests used:
[1] = test system: complement activation in factor B-depleted human sera; assay type: biochemical
Description: Peptides were diluted to 0.77 mM in factor B-depleted human sera (Complement Technologies, Inc.) and incubated for 1 hour at 37° C. These peptides were then diluted with GVBS^++ to equal 2.5/s serum, of which 0.25 ml was combined with 0.4 ml of GVBS^++ and 0.1 ml of sensitized sheep red blood cells (RBCs) and again incubated for 1 hour at 37° C. The procedure was stopped by the addition of 4.0 ml of GVBS^−−, centrifuged for 5 minutes at 1,620×g, and the absorbance of the supernatants was read at 412 nm in a spectrophotometer. The percent lysis of each sample was standardized to that of the serum only control.
The final concentration of peptide in factor B-depleted serum was 0.77 mM. Each peptide was evaluated in triplicate and the mean values are reported. […] In the hemolytic assay, soluble peptides are standardized to water and insoluble peptides standardized to DMSO.
Polar Assortant peptides were serially diluted in undiluted factor B-depleted human sera (Complement Technologies, Inc.) and incubated for 1 hour at 37° C. Water, GVBS^++ and DMSO were included as controls. These peptides were then diluted with GVBS^++ to equal 2.5/s serum, of which 0.25 ml was combined with 0.4 ml of GVBS^++ and 0.1 ml of sensitized sheep red blood cells (RBCs) and again incubated for 1 hour at 37° C. The procedure was stopped by the addition of 4.0 ml of GVBS^−−, centrifuged for 5 minutes at 1,620×g, and the absorbance of the supernatants was read at 412 nm in a spectrophotometer. The percent lysis of each sample was standardized to that of the serum only control.
The final concentration of peptide in factor B-depleted serum was 0.77 mM. […] In the hemolytic assay, soluble peptides were standardized to water and insoluble peptides standardized to DMSO.
The final concentration of peptide in factor B-depleted serum was 0.77 mM. […] In the hemolytic assay, soluble peptides are standardized to water and insoluble peptides standardized to DMSO.

[2] = Solubility in water; assay type: physicochemical
[3] = Table 7, PEGylated and sarcosine/alanine substitution peptides
[4] = Table 5, sarcosine substitution peptides

| Molecule | Hemolysis (%) [1] [%] | Solubility in water [2, 3] | Solubility in water [2, 4] | inhibition of complement activity in hemolytic assay ([1]; factor B depleted serum) | solubility in water / aqueous solutions [2] |
| --- | --- | --- | --- | --- | --- |
| CC[C@H](C)[C@H](N)C(=O)N[C@@H](C)C(=O)N[C@@H](CC(C)C)C(=O)N[C@H](C(=O)N[C@@H](CC(C)C)C(=O)N[C@@H](C)C(=O)N1CCC[C@H]1C(=O)N[C@H](C(=O)N[C@@H](CS)C(=O)N[C@@H](CS)C(=O)N[C@@H](CCC(N)=O)C(=O)N[C@@H](C)C(=O)N[C@@H](CCCNC(=N)N)C(=O)N[C@@H](C)C(=O)N[C@@H](C)C(=O)NCCOCCOCCOCCOCCOCCOCCOCCOCCOCCOCCOCCOCCOCCOCCOCCOCCOCCOCCOCCOCCOCCOCCOCCOCCC(=O)O)[C@@H](C)CC)[C@@H](C)CC [E6AE12A-dPEG24] (H-IALILAPICCQARAA[PEG24]-OH; N-terminus assumed) | 4.95 | Yes | – | – | – |
| CC[C@H](C)[C@H](N)C(=O)N[C@@H](C)C(=O)N[C@@H](CC(C)C)C(=O)N[C@H](C(=O)N[C@@H](CC(C)C)C(=O)N[C@@H](CCC(=O)O)C(=O)N1CCC[C@H]1C(=O)N[C@H](C(=O)N(C)CC(=O)N[C@@H](CS)C(=O)N[C@@H](CCC(N)=O)C(=O)N[C@@H](CCC(=O)O)C(=O)N(C)CC(=O)N[C@@H](C)C(=O)N[C@@H](C)C(=O)O)[C@@H](C)CC)[C@@H](C)CC [Peptide R13SarC9Sar] (H-IALILEPI[Sar]CQE[Sar]AA-OH) | 84.81 | No | – | – | – |
| CC[C@H](C)[C@H](N)C(=O)N(C)CC(=O)N[C@@H](CC(C)C)C(=O)N[C@H](C(=O)N[C@@H](CC(C)C)C(=O)N[C@@H](CCC(=O)O)C(=O)N1CCC[C@H]1C(=O)N[C@H](C(=O)N[C@@H](CS)C(=O)N[C@@H](CS)C(=O)N[C@@H](CCC(N)=O)C(=O)N[C@@H](CCC(=O)O)C(=O)N[C@@H](CCCNC(=N)N)C(=O)N[C@@H](C)C(=O)N[C@@H](C)C(=O)O)[C@@H](C)CC)[C@@H](C)CC [PA-A2Sar] (H-I[Sar]LILEPICCQERAA-OH; N-terminus and C-terminus assumed) | 37.72 | – | Yes | – | – |
| dPEG24-IALILEPICCQERAA (cysteine pairing not given here) [dPEG24-PA] | – | – | – | varying degrees of complement inhibition | soluble in water |
| CC[C@H](C)[C@H](N)C(=O)N[C@@H](C)C(=O)N[C@@H](CC(C)C)C(=O)N[C@H](C(=O)N[C@@H](CC(C)C)C(=O)N[C@@H](CCC(=O)O)C(=O)N(C)CC(=O)N[C@H](C(=O)N[C@@H](CS)C(=O)N[C@@H](CS)C(=O)N[C@@H](CCC(N)=O)C(=O)N[C@@H](CCC(=O)O)C(=O)N[C@@H](CCCNC(=N)N)C(=O)N(C)CC(=O)N[C@@H](C)C(=O)O)[C@@H](C)CC)[C@@H](C)CC [Peptide A14SarP7Sar, IALILE(Sar)ICCQER(Sar)A] (H-IALILE[Sar]ICCQER[Sar]A-OH; N-terminus and C-terminus assumed) | 4.37 | Yes | – | – | – |
| CC[C@H](C)[C@H](N)C(=O)N[C@@H](C)C(=O)N[C@@H](CC(C)C)C(=O)N[C@H](C(=O)N[C@@H](CC(C)C)C(=O)N[C@@H](CCC(=O)O)C(=O)N1CCC[C@H]1C(=O)N[C@H](C(=O)N[C@@H](CS)C(=O)N[C@@H](CS)C(=O)N[C@@H](CCC(N)=O)C(=O)N[C@@H](CCC(=O)O)C(=O)N[C@@H](CCCNC(=N)N)C(=O)N(C)CC(=O)N[C@@H](C)C(=O)NCCOCCOCCOCCOCCOCCOCCOCCOCCOCCOCCOCCOCCOCCOCCOCCOCCOCCOCCOCCOCCOCCOCCOCCOCCC(=O)O)[C@@H](C)CC)[C@@H](C)CC [PA-A14Sar-dPEG24] | 3.68 | Yes | – | – | – |
| CC[C@H](C)[C@H](N)C(=O)N[C@@H](C)C(=O)N[C@@H](CC(C)C)C(=O)N[C@H](C(=O)N[C@@H](CC(C)C)C(=O)N[C@@H](CCC(=O)O)C(=O)N1CCC[C@H]1C(=O)N[C@H](C(=O)N[C@@H](CS)C(=O)N[C@@H](CS)C(=O)N[C@@H](CCC(N)=O)C(=O)N[C@@H](CCC(=O)O)C(=O)N[C@@H](CCCNC(=N)N)C(=O)N[C@@H](C)C(=O)N(C)CC(=O)O)[C@@H](C)CC)[C@@H](C)CC [PA-A15Sar] | 21.68 | – | No | – | – |
| ALILEPICC[Sar]ERAA (cysteine pairing not given here) [PA-Q11Sar] | 3.02 | – | No | – | – |
| CC[C@H](C)[C@H](N)C(=O)N[C@@H](C)C(=O)N[C@@H](CC(C)C)C(=O)N[C@H](C(=O)N[C@@H](CC(C)C)C(=O)N[C@@H](CCC(=O)O)C(=O)N(C)CC(=O)N[C@H](C(=O)N[C@@H](CS)C(=O)N[C@@H](CS)C(=O)N(C)CC(=O)N[C@@H](CCC(=O)O)C(=O)N[C@@H](CCCNC(=N)N)C(=O)N[C@@H](C)C(=O)N[C@@H](C)C(=O)O)[C@@H](C)CC)[C@@H](C)CC [Peptide Q11SarP7Sar, IALILE(Sar)ICC(Sar)ERAA] (H-IALILE[Sar]ICC[Sar]ERAA-OH; N-terminus and C-terminus assumed) | 3.22 | Yes | – | – | – |
| CC[C@H](C)[C@H](N)C(=O)N[C@@H](C)C(=O)N[C@@H](CC(C)C)C(=O)N[C@H](C(=O)N[C@@H](CC(C)C)C(=O)N[C@@H](CCC(=O)O)C(=O)N(C)CC(=O)N[C@H](C(=O)N[C@@H](CS)C(=O)N[C@@H](CS)C(=O)N[C@@H](CCC(N)=O)C(=O)N[C@@H](CCC(=O)O)C(=O)N(C)CC(=O)N[C@@H](C)C(=O)N[C@@H](C)C(=O)O)[C@@H](C)CC)[C@@H](C)CC [Peptide R13SarP7Sar, IALILE(Sar)ICCQE(Sar)AA] (H-IALILE[Sar]ICCQE[Sar]AA-OH) | 26.35 | No | – | – | – |
| CC[C@H](C)[C@H](N)C(=O)N[C@@H](C)C(=O)N[C@@H](CC(C)C)C(=O)N[C@H](C(=O)N[C@@H](CC(C)C)C(=O)N[C@@H](C)C(=O)N(C)CC(=O)N[C@H](C(=O)N[C@@H](CS)C(=O)N[C@@H](CS)C(=O)N[C@@H](CCC(N)=O)C(=O)N[C@@H](C)C(=O)N[C@@H](CCCNC(=N)N)C(=O)N[C@@H](C)C(=O)N[C@@H](C)C(=O)O)[C@@H](C)CC)[C@@H](C)CC [Peptide E6AE12AP7Sar] (H-IALILA[Sar]ICCQARAA-OH; N-terminus and C-terminus assumed) | 4.60 | Yes | – | – | – |
| CC[C@H](C)[C@H](N)C(=O)N[C@@H](C)C(=O)N[C@@H](CC(C)C)C(=O)N[C@H](C(=O)N[C@@H](CC(C)C)C(=O)N(C)CC(=O)N(C)CC(=O)N[C@H](C(=O)N[C@@H](CS)C(=O)N[C@@H](CS)C(=O)N[C@@H](CCC(N)=O)C(=O)N[C@@H](CCC(=O)O)C(=O)N[C@@H](CCCNC(=N)N)C(=O)N[C@@H](C)C(=O)N[C@@H](C)C(=O)O)[C@@H](C)CC)[C@@H](C)CC [Peptide E6SarP7Sar] (H-IALIL[Sar][Sar]ICCQERAA-OH; N-terminus and C-terminus assumed) | 3.57 | Yes | – | – | – |
| CC[C@H](C)[C@H](N)C(=O)N[C@@H](C)C(=O)N[C@@H](CC(C)C)C(=O)N[C@H](C(=O)N[C@@H](CC(C)C)C(=O)N[C@@H](CCC(=O)O)C(=O)N1CCC[C@H]1C(=O)N[C@H](C(=O)N(C)CC(=O)N[C@@H](C)C(=O)N[C@@H](CCC(N)=O)C(=O)N[C@@H](CCC(=O)O)C(=O)N[C@@H](CCCNC(=N)N)C(=O)N[C@@H](C)C(=O)N[C@@H](C)C(=O)O)[C@@H](C)CC)[C@@H](C)CC [PA-C9SarC10A] (H-IALILEPI[Sar]AQERAA-OH) | 99.37 | Yes | – | – | – |
| CC[C@H](C)[C@H](N)C(=O)N[C@@H](C)C(=O)N[C@@H](CC(C)C)C(=O)N[C@H](C(=O)N[C@@H](CC(C)C)C(=O)N(C)CC(=O)N1CCC[C@H]1C(=O)N[C@H](C(=O)N[C@@H](CS)C(=O)N[C@@H](CS)C(=O)N[C@@H](CCC(N)=O)C(=O)N[C@@H](CCC(=O)O)C(=O)N[C@@H](CCCNC(=N)N)C(=O)N[C@@H](C)C(=O)N[C@@H](C)C(=O)O)[C@@H](C)CC)[C@@H](C)CC [PA-E6Sar] | 5.19 | – | No | – | – |
| CC[C@H](C)[C@H](N)C(=O)N[C@@H](C)C(=O)N[C@@H](CC(C)C)C(=O)N[C@H](C(=O)N[C@@H](CC(C)C)C(=O)N[C@@H](CCC(=O)O)C(=O)N1CCC[C@H]1C(=O)N[C@H](C(=O)N[C@@H](CS)C(=O)N[C@@H](CS)C(=O)N[C@@H](CCC(N)=O)C(=O)N[C@@H](CCC(=O)O)C(=O)N[C@@H](CCCNC(=N)N)C(=O)N(C)CC(=O)N[C@@H](C)C(=O)O)[C@@H](C)CC)[C@@H](C)CC [PA-A14Sar] | 3.88 | – | No | – | – |
| CC[C@H](C)[C@H](N)C(=O)N[C@@H](C)C(=O)N[C@@H](CC(C)C)C(=O)N[C@H](C(=O)N[C@@H](CC(C)C)C(=O)N[C@@H](CCC(=O)O)C(=O)N1CCC[C@H]1C(=O)N(C)CC(=O)N[C@@H](CS)C(=O)N[C@@H](CS)C(=O)N[C@@H](CCC(N)=O)C(=O)N[C@@H](CCC(=O)O)C(=O)N[C@@H](CCCNC(=N)N)C(=O)N[C@@H](C)C(=O)N[C@@H](C)C(=O)O)[C@@H](C)CC [PA-I8Sar, IALILEP(Sar)CCQERAA] | 33.92 | – | Yes | – | – |
